Measured values: ChEMBL document CHEMBL4725478, “Spiroindoline-Capped Selective HDAC6 Inhibitors: Design, Synthesis, Structural Analysis, and Biological Evaluation” (ACS Med Chem Lett, 2020)
Active and inactive are the calls of the source. No cut-off for these calls is given here.

Legend:
Histone deacetylase 1 [1] = biological target: T1, Histone deacetylase 1 (Homo sapiens, UniProt Q13547); assay: Inhibition of full length C-terminal His/FLAG-tagged human HDAC1 expressed in baculovirus expression system using ZMAL as substrate incubated for 90 mins by fluorescence assay
[2] = biological target: T2, Protein deacetylase HDAC6 (Homo sapiens, UniProt Q9UBN7); assay: Inhibition of full length N-terminal GST-tagged human HDAC6 expressed in baculovirus expression system using ZMAL as substrate incubated for 90 mins by fluorescence assay
T2 sequence (Q9UBN7 whole entry): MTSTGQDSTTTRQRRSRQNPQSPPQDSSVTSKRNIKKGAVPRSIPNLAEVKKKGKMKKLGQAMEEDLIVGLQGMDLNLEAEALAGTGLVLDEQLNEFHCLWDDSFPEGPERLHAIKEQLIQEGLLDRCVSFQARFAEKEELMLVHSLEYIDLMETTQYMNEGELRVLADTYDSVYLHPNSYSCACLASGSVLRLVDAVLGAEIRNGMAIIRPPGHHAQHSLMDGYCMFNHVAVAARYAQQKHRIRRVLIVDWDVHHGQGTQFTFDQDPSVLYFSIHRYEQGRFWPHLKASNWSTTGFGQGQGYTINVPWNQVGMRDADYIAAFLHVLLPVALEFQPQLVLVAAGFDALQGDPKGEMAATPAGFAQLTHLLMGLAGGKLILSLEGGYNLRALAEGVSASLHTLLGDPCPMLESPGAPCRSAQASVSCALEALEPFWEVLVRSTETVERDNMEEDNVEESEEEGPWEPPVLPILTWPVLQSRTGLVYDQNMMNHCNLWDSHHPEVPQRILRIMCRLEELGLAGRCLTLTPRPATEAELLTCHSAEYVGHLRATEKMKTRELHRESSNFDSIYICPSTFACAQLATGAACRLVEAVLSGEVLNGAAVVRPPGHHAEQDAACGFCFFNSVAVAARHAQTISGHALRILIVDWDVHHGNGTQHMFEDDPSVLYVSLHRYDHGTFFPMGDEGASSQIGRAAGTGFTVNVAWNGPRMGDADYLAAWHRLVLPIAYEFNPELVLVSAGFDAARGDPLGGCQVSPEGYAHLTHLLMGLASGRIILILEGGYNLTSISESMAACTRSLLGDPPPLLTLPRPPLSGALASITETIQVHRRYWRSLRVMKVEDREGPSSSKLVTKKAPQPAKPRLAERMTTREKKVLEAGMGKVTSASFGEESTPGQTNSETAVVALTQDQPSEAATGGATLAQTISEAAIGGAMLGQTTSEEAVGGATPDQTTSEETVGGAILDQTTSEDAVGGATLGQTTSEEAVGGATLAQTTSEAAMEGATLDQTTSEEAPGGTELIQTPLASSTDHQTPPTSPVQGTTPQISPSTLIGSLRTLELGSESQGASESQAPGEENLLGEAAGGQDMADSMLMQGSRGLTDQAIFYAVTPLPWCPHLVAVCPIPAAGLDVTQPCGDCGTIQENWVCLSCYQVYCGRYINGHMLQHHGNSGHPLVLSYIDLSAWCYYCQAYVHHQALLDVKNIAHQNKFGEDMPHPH

Homo sapiens [3] = species: Homo sapiens; assay: Selectivity ratio of IC50 for full length C-terminal His/FLAG-tagged human HDAC1 expressed in baculovirus expression system to IC50 full length N-terminal GST-tagged human HDAC6 expressed in baculovirus expression system
Ca9-22 = assay: Antiproliferative activity against human Ca9-22 cells assessed as reduction in cell viability measured after 48 hrs by alamar blue dye based spectrofluorometry; assay type: functional; conditions: Ca9-22, 48 h
[4] = Antiproliferative activity against human TR-146 cells assessed as reduction in cell viability measured after 48 hrs by alamar blue dye based spectrofluorometry; assay type: functional; conditions: TR146, 48 h
Histone deacetylase 1 [5] = biological target: T1, Histone deacetylase 1; assay: Inhibition of full length C-terminal His/FLAG-tagged human HDAC1 expressed in baculovirus expression system at 1 uM using ZMAL as substrate incubated for 90 mins by fluorescence assay relative to control
[6] = biological target: T3, Protein deacetylase HDAC6 (Homo sapiens) (UniProt Q9UBN7); assay: Inhibition of full length N-terminal GST-tagged human HDAC6 expressed in baculovirus expression system at 1 uM using ZMAL as substrate incubated for 90 mins by fluorescence assay relative to control
T3 sequence (whole entry): T2 sequence (Q9UBN7 whole entry)

Histone deacetylase 8 = biological target: T4, Histone deacetylase 8 (Homo sapiens, UniProt Q9BY41); assay: Inhibition of human recombinant HDAC8 expressed in Escherichia coli using Fluor de Lys substrate preincubated for 15 mins followed by substrate addition and measured after 60 mins by fluorescence assay
T4 sequence (Q9BY41 whole entry): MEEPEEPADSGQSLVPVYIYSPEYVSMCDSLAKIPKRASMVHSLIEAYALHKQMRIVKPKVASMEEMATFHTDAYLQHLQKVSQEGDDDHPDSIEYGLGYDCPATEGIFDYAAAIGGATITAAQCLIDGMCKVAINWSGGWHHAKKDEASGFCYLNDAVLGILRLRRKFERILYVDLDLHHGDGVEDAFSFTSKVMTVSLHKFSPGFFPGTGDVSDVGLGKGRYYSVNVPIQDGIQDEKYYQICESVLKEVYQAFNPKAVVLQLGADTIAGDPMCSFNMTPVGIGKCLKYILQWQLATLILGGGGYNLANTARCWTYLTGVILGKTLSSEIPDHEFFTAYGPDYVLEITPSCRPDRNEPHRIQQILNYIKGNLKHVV

[7] = biological target: T3, Protein deacetylase HDAC6 (Homo sapiens); assay: Inhibition of HDAC6 in human MEC1 cells assessed as reduction in STAT3 phosphorylation at 5 to 10 uM measured after 30 hrs by immunoblot assay; assay type: cell-based; conditions: dose microM 5-10, time 30.0 hrs
[8] = biological target: T3, Protein deacetylase HDAC6 (Homo sapiens); assay: Inhibition of HDAC6 in human U-266 cells assessed as reduction in STAT3 phosphorylation at 25 uM measured after 4 to 48 hrs by immunoblot assay; assay type: cell-based; conditions: time hrs 4-48
[9] = Cytotoxicity against mouse NIH3T3 cells assessed as reduction in cell viability measured after 24 hrs by neutral red uptake assay; assay type: cell-based; conditions: read-out: TC50
KYSE-520 cell line [10] = assay: Antiproliferative activity against human KYSE520 cells assessed as reduction in cell viability measured after 48 hrs by alamar blue dye based spectrofluorometry; assay type: functional; conditions: KYSE-520, 48 h
OE33 = assay: Antiproliferative activity against human OE33 cells assessed as reduction in cell viability measured after 72 hrs by MTT assay; assay type: functional, cell-based; conditions: OE33, 72 h
Homo sapiens [11] = species: Homo sapiens; assay: Selectivity ratio of IC50 for human recombinant HDAC8 expressed in Escherichia coli to IC50 full length N-terminal GST-tagged HDAC6 expressed in baculovirus expression system
[12] = Mutagenicity in Salmonella typhimurium TA98 at 8 to 160 uM measured after 90 mins in absence of S9 fraction by Ames test; assay type: toxicity; conditions: salmonella enterica subsp. enterica serovar typhimurium, s9, 1.5 h, dose 8-160 µM
[13] = Mutagenicity in Salmonella typhimurium TA98 at 8 to 160 uM measured after 90 mins in presence of S9 fraction by Ames test; assay type: toxicity, subcellular; conditions: salmonella enterica subsp. enterica serovar typhimurium, s9, 1.5 h, dose 8-160 µM
[14] = Mutagenicity in Salmonella typhimurium TA100 at 24 to 40 uM measured after 90 mins in absence of S9 fraction by Ames test; assay type: toxicity; conditions: salmonella enterica subsp. enterica serovar typhimurium, s9, 1.5 h, dose 24-40 µM
[15] = Mutagenicity in Salmonella typhimurium TA100 at 24 to 40 uM measured after 90 mins in presence of S9 fraction by Ames test; assay type: toxicity, subcellular; conditions: salmonella enterica subsp. enterica serovar typhimurium, s9, 1.5 h, dose 24-40 µM
U-937 = assay: Cell cycle arrest in human U-937 cells assessed as reduction in accumulation at S-phase at 10 uM measured after 24 to 48 hrs by propidium iodide staining based flow cytometry; assay type: functional; conditions: time hrs 24-48
NB-4 [16] = assay: Cell cycle arrest in human NB-4 cells at 5 to 10 uM measured after 24 to 48 hrs by propidium iodide staining based flow cytometry; assay type: functional; conditions: dose microM 5-10, time hrs 24-48
NB-4 [17] = assay: Induction of apoptosis in human NB-4 cells assessed as increase in cleaved PARP expression at 10 uM measured after 24 to 48 hrs by Western blot analysis; assay type: functional, cell-based; conditions: time hrs 24-48
KYSE-520 cell line [18] = assay: Induction of apoptosis human KYSE520 cells at 30 to 100 uM measured after 48 hrs by Annexin-V/propidium iodide staining based assay; assay type: functional, cell-based; conditions: dose microM 30-100, time 48.0 hrs
[19] = Mutagenicity in Salmonella typhimurium TA100 at 8 uM measured after 90 mins in absence of S9 fraction by Ames test; assay type: toxicity; conditions: salmonella enterica subsp. enterica serovar typhimurium, s9, 1.5 h
[20] = Mutagenicity in Salmonella typhimurium TA100 at 8 uM measured after 90 mins in presence of S9 fraction by Ames test; assay type: toxicity, subcellular; conditions: salmonella enterica subsp. enterica serovar typhimurium, s9, 1.5 h

T1 sequence (Q13547 whole entry): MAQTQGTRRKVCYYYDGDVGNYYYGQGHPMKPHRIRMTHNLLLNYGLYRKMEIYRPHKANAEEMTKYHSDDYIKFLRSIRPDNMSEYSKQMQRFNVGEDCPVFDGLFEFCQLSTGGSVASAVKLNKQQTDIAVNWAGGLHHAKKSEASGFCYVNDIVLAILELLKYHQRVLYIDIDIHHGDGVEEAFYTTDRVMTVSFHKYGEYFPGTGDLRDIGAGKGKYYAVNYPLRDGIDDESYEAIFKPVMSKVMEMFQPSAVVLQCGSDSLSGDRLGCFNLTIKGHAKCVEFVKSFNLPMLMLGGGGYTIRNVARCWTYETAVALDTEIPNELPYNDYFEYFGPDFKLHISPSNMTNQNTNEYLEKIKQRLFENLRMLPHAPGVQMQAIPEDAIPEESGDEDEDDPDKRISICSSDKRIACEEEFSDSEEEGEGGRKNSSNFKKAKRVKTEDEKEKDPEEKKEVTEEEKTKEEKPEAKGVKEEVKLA

`O=C(NO)c1ccc(CN2CCC3(CC2)CN(C(=O)c2ccccc2)c2ccccc23)cc1` showed an IC50 (Histone deacetylase 1 [1]) of 10.1 µM, an IC50 [2] of 155 nM and a Ratio IC50 (Homo sapiens [3]) of 65. It also gave an IC50 (Ca9-22) of over 1000 µM and an IC50 [4] of over 1000 µM.

For `CN1CC2(CCN(Cc3ccc(C(=O)NO)cc3)CC2)c2cccc(-c3ccccc3)c21`, the inhibition (Histone deacetylase 1 [5]) was 8.5% and the inhibition [6] was 50%.

`CN1CC2(CCN(Cc3ccc(C(=O)NO)s3)CC2)c2cccc(-c3ccccc3)c21` showed an inhibition (Histone deacetylase 1 [5]) of 6.6% and an inhibition [6] of 51.3%.

In the case of `CN1CC2(CCN(Cc3ccc(C(=O)NO)cc3)CC2)c2ccccc21`, the IC50 (Histone deacetylase 1 [1]) is reported as 22.4 µM, the IC50 [2] is reported as 264 nM and the Ratio IC50 (Homo sapiens [3]) is reported as 85. For the same molecule, the IC50 (Histone deacetylase 8) was 1910 nM, the inhibition [7] was “Active” and the inhibition [8] was “Active”. It also gave a CC50 at 24 h [9] of 24 µM, an IC50 (KYSE-520 cell line [10]) of 197 µM and an IC50 (OE33) of 17.7 µM. The IC50 (Ca9-22) was over 1000 µM, the IC50 [4] was over 1000 µM and the Ratio IC50 (Homo sapiens [11]) was 7. For the same molecule, the Activity [12] was “Non-Toxic”, the Activity [13] was “Non-Toxic” and the Activity [14] was “Toxic”. The Activity [15] was “Toxic”.

`CC(C)(C)OC(=O)N1CCC2(CC1)CN(Cc1ccc(C(=O)NO)cc1)c1ccccc12` showed a Ratio IC50 (Homo sapiens [3]) of 95.

Molecule `O=C(NO)c1ccc(CN2CCC3(CC2)CN(Cc2ccccc2)c2ccccc23)cc1` has an IC50 (Histone deacetylase 1 [1]) of 6.5 µM, an IC50 [2] of 561 nM and a Ratio IC50 (Homo sapiens [3]) of 12. The CC50 at 24 h [9] was 40 µM, the IC50 (KYSE-520 cell line [10]) was 12.8 µM and the IC50 (OE33) was 5.56 µM. For the same molecule, the IC50 (Ca9-22) was 19 µM, the IC50 [4] was 18 µM and the Activity (U-937) was “Active”. The Activity (NB-4 [16]) was “Active”, the Activity (NB-4 [17]) was “Active” and the Activity (KYSE-520 cell line [18]) was “Active”. For the same molecule, the Activity [12] was “Non-Toxic”, the Activity [13] was “Non-Toxic” and the Activity [19] was “Toxic”. For the same molecule, the Activity [20] was “Toxic”.
